In patent publication US8574563B2 (Bristol-Myers Squibb Company, priority 2006, dated 2013):

System: HCV 1b-377-neo replicon cells
Experiment: HCV replicon assay, HCV 1b-377-neo replicon cells (1b FRET)
Format: cell-based, Hepatitis C virus genotype 1b
Settings: HCV 1b-377-neo replicon cells; HCV 1b genotype; read-out: EC50 range against HCV 1b (Table 2, Range)
Procedure, shortened: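 Compounds tested in HCV genotype 1b-377-neo replicon cells with a FRET read-out. Cells resistant to a reference NS5A inhibitor through a Y2065H NS5A mutation were run alongside wild-type cells.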

**Q.** How did the EC50 turn out when `CN(C)CC(=O)N[C@@H](C(=O)N1CCC[C@H]1c1ncc(-c2ccc(-c3ccc(-c4c[nH]c([C@@H]5CCCN5C(=O)[C@H]5CCCO5)n4)cc3)cc2)[nH]1)c1ccccc1` [Example 120-8, N^2,N^2-dimethyl-N-((1R)-2-oxo-1-phenyl-2-((2S)-2-(5-(4′-(2-((2S)-1-((2R)-tetrahydro-2-furanylcarbonyl)-2-pyrrolidinyl)-1H-imidazol-4-yl)-4-biphenylyl)-1H-imidazol-2-yl)-1-pyrrolidinyl)ethyl) glycinamide] was run?
**A.** 1 to 99 nM

Same assay, conditions: Hepatitis C virus, HCV 1b-377-neo replicon cells; HCV 1b genotype; read-out: EC50 range against HCV 1b (Table 2, Range)

**Q.** With `COC(=O)N[C@H](C(=O)N1CCC[C@H]1c1nc(-c2ccc(-c3ccc(-c4cnc([C@@H]5CCCN5C(=O)[C@@H](NC(=O)OC)C5CCOCC5)[nH]4)cc3)cc2)c[nH]1)C1CCOCC1` [Example F38, methyl ((1S)-2-((2S)-2-(4-(4′-(2-((2S)-1-((2S)-2-((methoxycarbonyl)amino)-2-(tetrahydro-2H-pyran-4-yl)acetyl)-2-pyrrolidinyl)-1H-imidazol-5-yl)-4-biphenylyl)-1H-imidazol-2-yl)-1-pyrrolidinyl)-2-oxo-1-(tetrahydro-2H-pyran-4-yl)ethyl)carbamate] as the molecule, how does the EC50 read?
**A.** 0.001 to 0.999 nM

**Q.** How did the EC50 turn out when `CCN[C@@H](C(=O)N1CCC[C@H]1c1ncc(-c2ccc(-c3ccc(-c4c[nH]c([C@@H]5CCCN5C(=O)[C@H](C)NC(=O)OC)n4)cc3)cc2)[nH]1)c1ccccc1` [Example F41, methyl ((1S)-2-((2S)-2-(4-(4′-(2-((2S)-1-((2R)-2-(ethylamino)-2-phenylacetyl)-2-pyrrolidinyl)-1H-imidazol-5-yl)-4-biphenylyl)-1H-imidazol-2-yl)-1-pyrrolidinyl)-1-methyl-2-oxoethyl)carbamate] was run?
**A.** 0.001 to 0.999 nM

**Q.** Which EC50 does the source give for `CN(C)Cc1ccccc1CC(=O)N1CCC[C@H]1c1ncc(-c2ccc(-c3ccc(-c4cnc([C@@H]5CCCN5C(=O)[C@@H](c5ccccc5)N5CCCCC5)[nH]4)cc3)cc2)[nH]1` [Example 107-23, N,N-dimethyl-1-(2-(2-oxo-2-((2S)-2-(5-(4′-(2-((2S)-1-((2R)-2-phenyl-2-(1-piperidinyl)acetyl)-2-pyrrolidinyl)-1H-imidazol-5-yl)-4-biphenylyl)-1H-imidazol-2-yl)-1-pyrrolidinyl)ethyl)phenyl) methanamine] here?
**A.** 0.001 to 0.999 nM

**Q.** Which EC50 does the source give for `O=C(C1CC1)N1CCC[C@H]1c1ncc(-c2ccc(-c3ccc(-c4cnc([C@@H]5CCCN5C(=O)C5CC5)[nH]4)cc3)cc2)[nH]1` [Example 11, 5,5′-(4,4′-biphenyldiyl)bis(2-((2S)-1-(cyclopropylcarbonyl)-2-pyrrolidinyl)-1H-imidazole)] here?
**A.** 1 to 99 nM

**Q.** Which EC50 does the source give for `CCN(CC)[C@H](C)C(=O)N1CCC[C@H]1c1ncc(-c2ccc(-c3ccc(-c4cnc([C@@H]5CCCN5C(=O)[C@@H](NC(=O)OC)C(C)C)[nH]4)cc3)cc2)[nH]1` [Example M70, methyl ((1S)-1-(((2S)-2-(5-(4′-(2-((2S)-1-(N,N-diethyl-D-alanyl)-2-pyrrolidinyl)-1H-imidazol-5-yl)-4-biphenylyl)-1H-imidazol-2-yl)-1-pyrrolidinyl)carbonyl)-2-methylpropyl)carbamate] here?
**A.** 1 to 99 nM

**Q.** For `CN(C)[C@@H](C(=O)N1CCC[C@H]1c1ncc(-c2ccc(-c3ccc(-c4cnc([C@@H]5CCCN5C(=O)Cc5c[nH]c6ccccc56)[nH]4)cc3)cc2)[nH]1)c1ccccc1` [Example 94-56, (1R)-2-((2S)-2-(5-(4′-(2-((2S)-1-(1H-indol-3-ylacetyl)-2-pyrrolidinyl)-1H-imidazol-5-yl)-4-biphenylyl)-1H-imidazol-2-yl)-1-pyrrolidinyl)-N,N-dimethyl-2-oxo-1-phenylethanamine], which EC50 is on record?
**A.** 0.001 to 0.999 nM

**Q.** `C[C@@H](c1ncc(-c2ccc(-c3ccc(-c4cnc([C@H](C)N(C)C(=O)[C@@H](c5ccccc5)N(C)C)[nH]4)cc3)cc2)[nH]1)N(C)C(=O)[C@@H](c1ccccc1)N(C)C` [Example 24-18-2, (2R,2′R)-N,N′-(4,4′-biphenyldiylbis(1H-imidazole-5,2-diyl(1S)-1,1-ethanediyl))bis(2-(dimethylamino)N-methyl-2-phenylacetamide)] was tested. Which EC50 did it give?
**A.** 0.001 to 0.999 nM

**Q.** With `COC(=O)N[C@H](C(=O)N1CCC[C@H]1c1ncc(-c2ccc(-c3ccc(-c4[nH]c([C@@H]5CCCN5C(=O)[C@@H](NC(=O)OC)C(C)C)nc4C(F)(F)F)cc3)cc2)[nH]1)C(C)C` [Example J39, methyl ((1S)-1-(((2S)-2-(5-(4′-(2-((2S)-1-((2S)-2-((methoxycarbonyl)amino)-3-methylbutanoyl)-2-pyrrolidinyl)-1H-imidazol-5-yl)-4-biphenylyl)-4-(trifluoromethyl)-1H-imidazol-2-yl)-1-pyrrolidinyl)carbonyl)-2-methylpropyl)carbamate] as the molecule, how does the EC50 read?
**A.** 0.001 to 0.999 nM

**Q.** With `COC(=O)N[C@@H](C(=O)N1CCC[C@H]1c1ncc(-c2ccc(-c3ccc(-c4cnc([C@@H]5CCCN5C(=O)N5CCOCC5)[nH]4)cn3)cc2)[nH]1)c1ccccc1` [Example 144, methyl ((1R)-2-((2S)-2-(5-(4-(5-(2-((2S)-1-(4-morpholinylcarbonyl)-2-pyrrolidinyl)-1H-imidazol-5-yl)-2-pyridinyl)phenyl)-1H-imidazol-2-yl)-1-pyrrolidinyl)-2-oxo-1-phenylethyl)carbamate] as the molecule, how does the EC50 read?
**A.** 0.001 to 0.999 nM

**Q.** `COC(=O)N[C@@H](C(=O)N1CCC[C@H]1c1ncc(-c2ccc(-c3ccc(-c4cnc([C@@H]5CCCN5C(=O)CCN5CCCCC5)[nH]4)cc3)cc2)[nH]1)c1ccccc1` [Example 84-24, methyl ((1R)-2-oxo-1-phenyl-2-((2S)-2-(5-(4′-(2-((2S)-1-(3-(1-piperidinyl)propanoyl)-2-pyrrolidinyl)-1H-imidazol-5-yl)-4-biphenylyl)-1H-imidazol-2-yl)-1-pyrrolidinyl)ethyl)carbamate] was tested. Which EC50 did it give?
**A.** 0.001 to 0.999 nM

**Q.** `COC(=O)N[C@H](C(=O)N1CCC[C@H]1c1ncc(-c2ccc(-c3ccc(-c4cnc([C@@H]5CCCN5C(=O)[C@@H](N)C(C)(C)O)[nH]4)cc3)cc2)[nH]1)C(C)C` [Example M104, methyl ((1S)-1-(((2S)-2-(5-(4′-(2-((2S)-1-(3-hydroxy-L-valyl)-2-pyrrolidinyl)-1H-imidazol-5-yl)-4-biphenylyl)-1H-imidazol-2-yl)-1-pyrrolidinyl)carbonyl)-2-methylpropyl)carbamate] was tested. Which EC50 did it give?
**A.** 100 to 999 nM

**Q.** Which EC50 does the source give for `COC(=O)N[C@@H](Cc1ccccn1)C(=O)N1CCC[C@H]1c1ncc(-c2ccc(-c3ccc(-c4cnc([C@@H]5CCCN5C(=O)[C@@H](NC(=O)OC)C(C)C)[nH]4)cc3)cc2)[nH]1` [cj-65, methyl ((1S)-1-(((2S)-2-(5-(4′-(2-((2S)-1-((2S)-2-((methoxycarbonyl)amino)-3-(2-pyridinyl)propanoyl)-2-pyrrolidinyl)-1H-imidazol-5-yl)-4-biphenylyl)-1H-imidazol-2-yl)-1-pyrrolidinyl)carbonyl)-2-methylpropyl)carbamate] here?
**A.** 0.001 to 0.999 nM

**Q.** Which EC50 does the source give for `COC(=O)N[C@@H](C)C(=O)N1CCC[C@H]1c1ncc(-c2ccc(-c3ccc(-c4cnc([C@@H]5CCCN5C(=O)[C@@H](c5ccccc5)N5CCCC5)[nH]4)cc3)cc2)[nH]1` [Example 101, methyl ((1S)-1-methyl-2-oxo-2-((2S)-2-(5-(4′-(2-((2S)-1-((2R)-2-phenyl-2-(1-pyrrolidinyl)acetyl)-2-pyrrolidinyl)-1H-imidazol-5-yl)-4-biphenylyl)-1H-imidazol-2-yl)-1-pyrrolidinyl)ethyl)carbamate] here?
**A.** 0.001 to 0.999 nM

**Q.** Which EC50 does the source give for `COC(=O)NCC(=O)N1CCC[C@H]1c1ncc(-c2ccc(-c3ccc(-c4cnc([C@@H]5CCCN5C(=O)[C@H](NC(=O)OC)c5ccccc5)[nH]4)cc3)cc2)[nH]1` [Example 40, methyl (2-((2S)-2-(5-(4′-(2-((2S)-1-((2R)-2-((methoxycarbonyl)amino)-2-phenylacetyl)-2-pyrrolidinyl)-1H-imidazol-5-yl)-4-biphenylyl)-1H-imidazol-2-yl)-1-pyrrolidinyl)-2-oxoethyl)carbamate] here?
**A.** 0.001 to 0.999 nM

**Q.** How did the EC50 turn out when `COC(=O)N[C@@H](Cc1c[nH]nn1)C(=O)N1CCC[C@H]1c1ncc(-c2ccc(-c3ccc(-c4cnc([C@@H]5CCCN5C(=O)[C@@H](NC(=O)OC)[C@@H](C)OC)[nH]4)cc3)cc2)[nH]1` [cj-35, methyl ((1S)-2-((2S)-2-(5-(4′-(2-((2S)-1-((2S,3R)-3-methoxy-2-((methoxycarbonyl)amino)butanoyl)-2-pyrrolidinyl)-1H-imidazol-5-yl)-4-biphenylyl)-1H-imidazol-2-yl)-1-pyrrolidinyl)-2-oxo-1-(1H-1,2,3-triazol-4-ylmethyl)ethyl)carbamate] was run?
**A.** 1 to 99 nM

**Q.** Which EC50 does the source give for `COC(=O)N[C@@H](C(=O)N1[C@H](c2ncc(-c3ccc(-c4ccc(-c5cnc([C@@H]6C[C@@H]7C[C@@H]7N6C(=O)[C@H](NC(=O)OC)c6ccccc6)[nH]5)cc4)cc3)[nH]2)C[C@@H]2C[C@@H]21)c1ccccc1` [Example M124, dimethyl (4,4′-biphenyldiylbis(1H-imidazole-5,2-diyl(1S,3S,5S)-2-azabicyclo[3.1.0]hexane-3,2-diyl((1R)-2-oxo-1-phenyl-2,1-ethanediyl)))biscarbamate] here?
**A.** 1 to 99 nM

**Q.** Which EC50 does the source give for `COC(=O)N[C@@H](C(=O)N1CCC[C@H]1c1ncc(-c2ccc(-c3ccc(-c4cnc([C@@H]5CCCN5C(=O)[C@@H]5CCCO5)[nH]4)cc3)cc2)[nH]1)c1ccccc1` [Example 59, methyl ((1R)-2-oxo-1-phenyl-2-((2S)-2-(5-(4′-(2-((2S)-1-((2S)-tetrahydro-2-furanylcarbonyl)-2-pyrrolidinyl)-1H-imidazol-5-yl)-4-biphenylyl)-1H-imidazol-2-yl)-1-pyrrolidinyl)ethyl)carbamate] here?
**A.** 0.001 to 0.999 nM

**Q.** Which EC50 does the source give for `O=C([C@@H](c1ccccc1)N1CCCCC1)N1CCC[C@H]1c1ncc(-c2ccc(-c3ccc(-c4cnc([C@@H]5CCCN5C(=O)C5(c6ccccc6)CC5)[nH]4)cc3)cc2)[nH]1` [Example 107-22, 1-((1R)-2-oxo-1-phenyl-2-((2S)-2-(5-(4′-(2-((2S)-1-((1-phenylcyclopropyl)carbonyl)-2-pyrrolidinyl)-1H-imidazol-5-yl)-4-biphenylyl)-1H-imidazol-2-yl)-1-pyrrolidinyl)ethyl)piperidine] here?
**A.** 0.001 to 0.999 nM
